Data reported in US8039621B2, “Process for preparing anhydrous Aripirazole type I” (Cambrex Charles City, Inc., priority 2006, dated 2011).

Assay: Hygroscopicity of dried anhydrous aripiprazole Type I crystals
Assay type: physicochemical
Settings: vacuum of 22 inches Hg
Protocol: […] A dish of phosphorous pentoxide (dessicant) also was placed in the oven. Periodically, approximately a one (1) gram sample of the aripiprazole wet cake was removed from the oven and analyzed for moisture content by the volumetric Karl Fischer titration method and also for its hygroscopicity. At the end of the 40 hour period, the moisture content of the final sample was analyzed using the coulometric Karl Fischer titration method and the hygroscopicity of the sample also was determined.
Another portion of the aripiprazole wet cake (20 g), prepared in accordance with the above-described procedure, was placed in a drying oven, the oven maintained at a temperature between 70 to 80° C., and under a vacuum of 22 inches Hg for a period of 40 hours. A dish of phosphorous pentoxide (dessicant) also was placed in the oven to facilitate drying. Periodically, approximately a one (1) gram sample of the aripiprazole wet cake was removed from the oven and analyzed for moisture content by the volumetric Karl Fischer titration method and also for its hygroscopicity. At the end of the 40 hours, the moisture content of the final sample was analyzed using the coulometric Karl Fischer titration method and the hygroscopicity of the sample also was determined.

[1] = final sample after 40 Hours in 60 to 65° C. Oven
[2] = final sample after 40 Hours in 70 to 80° C. Oven

O=C1CCc2ccc(OCCCCN3CCN(c4cccc(Cl)c4Cl)CC3)cc2N1 [Batch 1, 7-[4-[4-(2,3-dichlorophenyl)-1-piperazinyl]butoxy]-3,4-dihydro-2-(1H)-quinolinone]
Hygroscopicity (%) [1]: 3.2% | Hygroscopicity (%) [2]: 0.8%

O=C1CCc2ccc(OCCCCN3CCN(c4cccc(Cl)c4Cl)CC3)cc2N1 [Batch 2, 7-[4-[4-(2,3-dichlorophenyl)-1-piperazinyl]butoxy]-3,4-dihydro-2-(1H)-quinolinone]
Hygroscopicity (%) [1]: 1.2% | Hygroscopicity (%) [2]: 0.7%

O=C1CCc2ccc(OCCCCN3CCN(c4cccc(Cl)c4Cl)CC3)cc2N1 [Batch 3, 7-[4-[4-(2,3-dichlorophenyl)-1-piperazinyl]butoxy]-3,4-dihydro-2-(1H)-quinolinone]
Hygroscopicity (%) [1]: 1.8% | Hygroscopicity (%) [2]: 0.4%
